pIC50: −log10 of the molar value.
Target: CXCR4 (Homo sapiens, UniProt P61073)
Test: fura-2 calcium mobilization in C8161 melanoma cells, antagonism of SDF-1
Assay type: cell-based

CXCR4, sequence (P61073 whole entry): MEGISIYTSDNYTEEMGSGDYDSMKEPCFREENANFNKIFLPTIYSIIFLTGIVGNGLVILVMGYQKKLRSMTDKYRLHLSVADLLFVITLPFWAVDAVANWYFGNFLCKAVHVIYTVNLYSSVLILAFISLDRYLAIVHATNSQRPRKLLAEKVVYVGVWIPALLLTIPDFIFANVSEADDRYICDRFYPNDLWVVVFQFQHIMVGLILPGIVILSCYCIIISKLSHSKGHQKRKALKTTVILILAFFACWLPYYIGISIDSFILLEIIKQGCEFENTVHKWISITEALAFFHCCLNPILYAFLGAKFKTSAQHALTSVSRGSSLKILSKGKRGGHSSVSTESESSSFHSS

pIC50	Substance
6.52	NUCC-388
6.00	NUCC-392
6.00	NUCC-54120

Reference: article PMC4960487, “Discovery and characterization of novel small-molecule CXCR4 receptor agonists and antagonists” (Scientific Reports, 2016)
